From patent EP2468718A1, “Cabanillasin, a new antifungal compound, produced by entomopathogenic xenorhabdus cabanillasii” (Nosopharm, priority 2010, dated 2012)
Where two headings read alike, the source gives them in different places.

What was measured:
Assay in all cases: Antifungal susceptibility testing, NCCLS M27-A2 broth microdilution (yeasts)
Assay type in all cases: cell-based
[1] = system: Candida Glabrata ATCC 90030; conditions: Nakaseomyces glabratus, ATCC90030, read-out: % of growth inhibition
Experimental: (§1) Cabanillasin activity was tested against different fungal human pathogens: ascomycetes yeasts (Candida albicans ATCC 90029, Candida Glabrata ATCC 90030, Candida krusei ATCC 6258 and Candida lusitaniae CBS 6936), basidiomycetes yeasts (Cryptococcus neoformans clinical strain), ascomycetes filamentous fungi (Aspergilus fumigatus clinical strain, Fusarium oxysporum clinical strain) and zygomycetes filamentous fungi (Rhizopus oryzae environemental strain) by the M38-A microdilution method with RPMI 1640 medium (RPMI 1640, MOPS 160 mM, glucose 18 g/L, pH 7) as recommended in the […]. The NCCLS M27-A2 broth microdilution method (NCCLS) was used when yeasts were tested.
(§2) Yeasts and filamentous inoculi were prepared on YPD medium (yeast extract 10 g/L, peptone 10 g/L and glucose 20 g/L) and Malt medium (malt extract 20 g/L) respectively. The densities of inoculi were adjusted by dilution in RPMI 1640 broth to a value ranged from 5.10^2 to 5.10^3 CFU/mL for yeasts isolates and 5.10^3 to 5.10^4 CFU/mL for filamentous fungi. Microdilution trays (96 U-bottom shaped) containing 190 µL fungal inoculum were added with 10 µL Cabanillasin solution (final concentration ranging from 50 to 0.098 mg/L for all fungi). After inoculation of the trays, all microdilution trays were incubated at 35°C in ambient air. The culture absorbance was measured at 600 nm, 24 h and 48 h after the beginning of the experiments for the yeasts and 48 h and 72 h after the beginning of the experiments for filamentous fungi and Cryptococcus neoformans. The activity results correspond to a percentage of growth inhibition ((1-Abs600 nm culture with Cabanillasin)/ Abs600 nm culture without Cabanillasin) x 100.
(§3) The IC50 value is the concentration at which inhibition of growth is equal to 50%. MICs for Candida species were determined at 24 h and 48 h and corresponded to 100% of growth inhibition. Amphotericin B was provided as standard (final concentration ranging from 16 to 0.03 mg/L for all fungi). Experiments were done in duplicate.

[2] = system: Candida albicans ATCC 90029; conditions: read-out: % of growth inhibition; for inhibition at 0.03 µg/mL: ATCC90029, 0.03 µg/mL; for inhibition at 0.06 µg/mL: ATCC90029, 0.06 µg/mL; for inhibition at 0.12 µg/mL: ATCC90029, 0.12 µg/mL; for inhibition at 0.25 µg/mL: ATCC90029, 0.25 µg/mL; for inhibition at 0.5 µg/mL: ATCC90029, 0.5 µg/mL; for inhibition at 1 µg/mL: ATCC90029, 1 µg/mL; for inhibition at 2 µg/mL: ATCC90029, 2 µg/mL; for inhibition at 4 µg/mL: ATCC90029, 4 µg/mL; for inhibition at 8 µg/mL: ATCC90029, 8 µg/mL; for inhibition at 16 µg/mL: ATCC90029, 16 µg/mL
Experimental: as §1, §2, §3

[3] = system: Cryptococcus neoformans clinical strain; conditions: read-out: % of growth inhibition
Experimental: as §1, §2, §3

C[C@@H]1[C@H](O)[C@@H](C)/C=C/C=C/C=C/C=C/C=C/C=C/C=C/[C@H](O[C@@H]2O[C@H](C)[C@@H](O)[C@H](N)[C@@H]2O)C[C@@H]2O[C@](O)(C[C@@H](O)C[C@@H](O)[C@H](O)CC[C@@H](O)C[C@@H](O)CC(=O)O[C@H]1C)C[C@H](O)[C@H]2C(=O)O [Amphotericin B, reference compound]
inhibition at 0.03 µg/mL ([1]; 24 h incubation): 16.8% | inhibition at 0.03 µg/mL ([1]; 48 h incubation): 25% | inhibition at 0.06 µg/mL ([1]; 24 h incubation): 71.3% | inhibition at 0.06 µg/mL ([1]; 48 h incubation): 23% | inhibition at 0.12 µg/mL ([1]; 24 h incubation): 100% | inhibition at 0.12 µg/mL ([1]; 48 h incubation): 68% | inhibition at 0.25 µg/mL ([1]; 24 h incubation): 100% | inhibition at 0.25 µg/mL ([1]; 48 h incubation): 100% | inhibition at 0.5 µg/mL ([1]; 24 h incubation): 100% | inhibition at 0.5 µg/mL ([1]; 48 h incubation): 100% | inhibition at 1 µg/mL ([1]; 24 h incubation): 100% | inhibition at 1 µg/mL ([1]; 48 h incubation): 100% | inhibition at 2 µg/mL ([1]; 24 h incubation): 100% | inhibition at 2 µg/mL ([1]; 48 h incubation): 100% | inhibition at 4 µg/mL ([1]; 24 h incubation): 100% | inhibition at 4 µg/mL ([1]; 48 h incubation): 100% | inhibition at 8 µg/mL ([1]; 24 h incubation): 100% | inhibition at 8 µg/mL ([1]; 48 h incubation): 100% | inhibition at 16 µg/mL ([1]; 24 h incubation): 100% | inhibition at 16 µg/mL ([1]; 48 h incubation): 100% | inhibition at 0.03 µg/mL ([2]; 24 h incubation): 30.3% | inhibition at 0.03 µg/mL ([2]; 48 h incubation): 17% | inhibition at 0.06 µg/mL ([2]; 24 h incubation): 56.7% | inhibition at 0.06 µg/mL ([2]; 48 h incubation): 32% | inhibition at 0.12 µg/mL ([2]; 24 h incubation): 95.2% | inhibition at 0.12 µg/mL ([2]; 48 h incubation): 70% | inhibition at 0.25 µg/mL ([2]; 24 h incubation): 100% | inhibition at 0.25 µg/mL ([2]; 48 h incubation): 100% | inhibition at 0.5 µg/mL ([2]; 24 h incubation): 100% | inhibition at 0.5 µg/mL ([2]; 48 h incubation): 100% | inhibition at 1 µg/mL ([2]; 24 h incubation): 100% | inhibition at 1 µg/mL ([2]; 48 h incubation): 100% | inhibition at 2 µg/mL ([2]; 24 h incubation): 100% | inhibition at 2 µg/mL ([2]; 48 h incubation): 100% | inhibition at 4 µg/mL ([2]; 24 h incubation): 100% | inhibition at 4 µg/mL ([2]; 48 h incubation): 100% | inhibition at 8 µg/mL ([2]; 24 h incubation): 100% | inhibition at 8 µg/mL ([2]; 48 h incubation): 100% | inhibition at 16 µg/mL ([2]; 24 h incubation): 100% | inhibition at 16 µg/mL ([2]; 48 h incubation): 100% | inhibition at 0.03 µg/mL ([3]; 48 h incubation): 17% | inhibition at 0.03 µg/mL ([3]; 72 h incubation): 0% | inhibition at 0.06 µg/mL ([3]; 48 h incubation): 32% | inhibition at 0.06 µg/mL ([3]; 72 h incubation): 5% | inhibition at 0.12 µg/mL ([3]; 48 h incubation): 70% | inhibition at 0.12 µg/mL ([3]; 72 h incubation): 44% | inhibition at 0.25 µg/mL ([3]; 48 h incubation): 100% | inhibition at 0.25 µg/mL ([3]; 72 h incubation): 81.5% | inhibition at 0.5 µg/mL ([3]; 48 h incubation): 100% | inhibition at 0.5 µg/mL ([3]; 72 h incubation): 100% | inhibition at 1 µg/mL ([3]; 48 h incubation): 100% | inhibition at 1 µg/mL ([3]; 72 h incubation): 100% | inhibition at 2 µg/mL ([3]; 48 h incubation): 100% | inhibition at 2 µg/mL ([3]; 72 h incubation): 100% | inhibition at 4 µg/mL ([3]; 48 h incubation): 100% | inhibition at 4 µg/mL ([3]; 72 h incubation): 100% | inhibition at 8 µg/mL ([3]; 48 h incubation): 100% | inhibition at 8 µg/mL ([3]; 72 h incubation): 100% | inhibition at 16 µg/mL ([3]; 48 h incubation): 100% | inhibition at 16 µg/mL ([3]; 72 h incubation): 100%
